In ChEMBL document CHEMBL4680089, “Development of Allosteric Hydrazide-Containing Class I Histone Deacetylase Inhibitors for Use in Acute Myeloid Leukemia” (J Med Chem, 2016):
pEC50, pIC50: −log10 of the molar value. Calls of active or inactive are those of the source. The rule behind the calls is not given here.

Tests used:
[1] = Cytotoxicity against human PBMC assessed as reduction in cell viability at 10 nM incubated for 24 hrs by Cell-titer-blue cell viability assay; settings: 0.01 µM
[2] = tested on: MV4-11; experiment: cells; type: functional, cell-based; settings: Homo sapiens, MV4-11, 48 h
Description: Cytotoxicity against human MV4-11 cells assessed as reduction in cell viability incubated for 48 hrs by Cell-titer-blue cell viability assay

[3] = target: T1, Class 1 histone deacetylase (Homo sapiens) (UniProt Q13547+O15379+Q92769+Q9BY41); settings: time 24.0 hrs
[4] = target: T1, Class 1 histone deacetylase (Homo sapiens); settings: time 24.0 hrs; remark: listed apart in the source
[5] = target: Histone deacetylase 3 (Homo sapiens, UniProt O15379); experiment: Allosteric inhibition of C-terminal His-tagged recombinant human HDAC3 expressed in Sf9 cells pre-incubated for 2 hrs before acetylated lysine-aminomethyl coumarin-BOC addition and measured after 2 hrs by fluorescence based assay
[6] = Drug metabolism in human liver microsomes assessed as o-glucuronidated metabolite formation in presence of UDP glucuronic acid incubated for 12 hrs at 37 degC by electrospray ionization liquid chromatography mass spectrometry; type: ADME, Microsome
[7] = Cytotoxicity against human PBMC assessed as reduction in cell viability incubated for 24 hrs by Cell-titer-blue cell viability assay relative to panobinostat
[8] = tested on: HEK293; experiment: Cytotoxicity against HEK293 cells assessed as reduction in cell viability incubated for 48 hrs by Cell-titer-blue cell viability assay; type: cell-based; settings: human, hek293, 48 h
[9] = target: T2, Protein deacetylase HDAC6 (Homo sapiens) (UniProt Q9UBN7); settings: MV4-11, dose 100.0 nM, time 24.0 hrs
T2 sequence (whole entry): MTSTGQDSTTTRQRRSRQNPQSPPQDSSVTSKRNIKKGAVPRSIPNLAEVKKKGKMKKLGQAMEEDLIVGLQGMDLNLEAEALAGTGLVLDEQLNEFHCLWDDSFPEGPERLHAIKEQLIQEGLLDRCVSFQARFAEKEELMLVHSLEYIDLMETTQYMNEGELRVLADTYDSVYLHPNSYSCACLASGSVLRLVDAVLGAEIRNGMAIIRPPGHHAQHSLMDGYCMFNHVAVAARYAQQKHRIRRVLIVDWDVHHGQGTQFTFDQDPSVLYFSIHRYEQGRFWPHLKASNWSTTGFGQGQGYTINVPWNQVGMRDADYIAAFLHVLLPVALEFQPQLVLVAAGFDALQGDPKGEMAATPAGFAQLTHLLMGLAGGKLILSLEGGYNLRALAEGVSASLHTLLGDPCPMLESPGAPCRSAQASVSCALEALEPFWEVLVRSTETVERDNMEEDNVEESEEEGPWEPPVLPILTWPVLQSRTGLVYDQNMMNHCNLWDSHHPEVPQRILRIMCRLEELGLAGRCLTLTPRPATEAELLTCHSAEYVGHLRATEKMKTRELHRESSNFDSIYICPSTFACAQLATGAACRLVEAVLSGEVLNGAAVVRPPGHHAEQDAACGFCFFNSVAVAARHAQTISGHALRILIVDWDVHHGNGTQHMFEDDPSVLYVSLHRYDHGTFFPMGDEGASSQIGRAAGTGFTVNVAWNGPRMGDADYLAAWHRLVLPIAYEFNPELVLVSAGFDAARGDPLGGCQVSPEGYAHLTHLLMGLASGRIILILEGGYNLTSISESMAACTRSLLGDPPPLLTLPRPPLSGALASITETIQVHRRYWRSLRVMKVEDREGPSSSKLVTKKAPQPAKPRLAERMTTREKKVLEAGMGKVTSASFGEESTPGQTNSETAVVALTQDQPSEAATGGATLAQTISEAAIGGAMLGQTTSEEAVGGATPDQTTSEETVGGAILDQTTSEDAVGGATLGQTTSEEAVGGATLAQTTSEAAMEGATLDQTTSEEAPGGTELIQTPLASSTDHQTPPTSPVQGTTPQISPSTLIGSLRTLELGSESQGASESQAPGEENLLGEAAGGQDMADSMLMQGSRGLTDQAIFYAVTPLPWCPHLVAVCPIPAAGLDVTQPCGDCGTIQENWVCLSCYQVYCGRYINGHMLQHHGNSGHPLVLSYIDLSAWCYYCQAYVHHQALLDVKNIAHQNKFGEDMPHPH

[10] = Drug metabolism in human liver microsomes assessed as o-glucuronidated metabolite formation in absence of UDP glucuronic acid incubated for 12 hrs at 37 degC by electrospray ionization liquid chromatography mass spectrometry; type: ADME, Microsome
[11] = Drug metabolism in human liver microsomes assessed as compound reduction in absence of UDP glucuronic acid incubated for 12 hrs at 37 degC by electrospray ionization liquid chromatography mass spectrometry; type: ADME, Microsome
[12] = tested on: RS4-11; experiment: Cytotoxicity against human RS4-11 cells assessed as reduction in cell viability incubated for 48 hrs by Cell-titer-blue cell viability assay; type: functional, cell-based; settings: RS4-11, 48 h
[13] = tested on: HL-60; experiment: Cytotoxicity against human HL-60 cells assessed as reduction in cell viability incubated for 48 hrs by Cell-titer-blue cell viability assay; type: functional, cell-based; settings: HL-60, 48 h
[14] = tested on: MOLM-14; experiment: Cytotoxicity against human MOLM-14 cells assessed as reduction in cell viability incubated for 48 hrs by Cell-titer-blue cell viability assay; type: functional, cell-based; settings: MOLM-14, 48 h
[15] = tested on: RPMI-8226; experiment: Cytotoxicity against human RPMI-8226 cells assessed as reduction in cell viability incubated for 48 hrs by Cell-titer-blue cell viability assay; type: functional, cell-based; settings: RPMI-8226, 48 h
[16] = tested on: K562; experiment: Cytotoxicity against human K562 cells assessed as reduction in cell viability incubated for 48 hrs by Cell-titer-blue cell viability assay; type: functional, cell-based; settings: K562, 48 h
[17] = MV4-11, filed as negative allosteric modulator, dose 100.0 nM

Sequence of Histone deacetylase 3 (O15379 whole entry): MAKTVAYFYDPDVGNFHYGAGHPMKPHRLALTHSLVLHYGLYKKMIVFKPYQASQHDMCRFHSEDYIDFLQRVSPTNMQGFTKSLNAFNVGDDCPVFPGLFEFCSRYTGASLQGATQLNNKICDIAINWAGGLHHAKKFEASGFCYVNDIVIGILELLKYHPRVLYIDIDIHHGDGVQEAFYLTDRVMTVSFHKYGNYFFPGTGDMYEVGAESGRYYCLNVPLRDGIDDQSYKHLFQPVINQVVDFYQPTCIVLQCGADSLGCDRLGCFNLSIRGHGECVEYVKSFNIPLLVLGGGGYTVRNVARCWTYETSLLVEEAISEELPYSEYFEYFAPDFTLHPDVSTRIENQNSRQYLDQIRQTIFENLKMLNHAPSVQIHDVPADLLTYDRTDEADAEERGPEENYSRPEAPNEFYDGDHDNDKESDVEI
T1 sequence (O15379 whole entry, looked up): as the sequence (O15379 whole entry) above
T1 sequence (Q13547 whole entry, looked up): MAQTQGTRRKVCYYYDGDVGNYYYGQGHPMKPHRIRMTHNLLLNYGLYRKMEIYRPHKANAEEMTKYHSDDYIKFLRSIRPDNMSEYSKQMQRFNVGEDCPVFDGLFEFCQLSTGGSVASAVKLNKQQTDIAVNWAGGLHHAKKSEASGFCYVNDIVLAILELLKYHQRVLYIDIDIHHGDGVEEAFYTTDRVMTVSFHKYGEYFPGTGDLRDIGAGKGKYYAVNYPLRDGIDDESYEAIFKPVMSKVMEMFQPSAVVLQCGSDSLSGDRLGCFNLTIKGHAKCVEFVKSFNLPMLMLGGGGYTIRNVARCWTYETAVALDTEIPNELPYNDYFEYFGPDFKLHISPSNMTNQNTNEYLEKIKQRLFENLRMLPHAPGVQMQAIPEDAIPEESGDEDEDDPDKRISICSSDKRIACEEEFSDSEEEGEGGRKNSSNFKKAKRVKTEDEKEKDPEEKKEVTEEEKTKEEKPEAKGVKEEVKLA
T1 sequence (Q92769 whole entry, looked up): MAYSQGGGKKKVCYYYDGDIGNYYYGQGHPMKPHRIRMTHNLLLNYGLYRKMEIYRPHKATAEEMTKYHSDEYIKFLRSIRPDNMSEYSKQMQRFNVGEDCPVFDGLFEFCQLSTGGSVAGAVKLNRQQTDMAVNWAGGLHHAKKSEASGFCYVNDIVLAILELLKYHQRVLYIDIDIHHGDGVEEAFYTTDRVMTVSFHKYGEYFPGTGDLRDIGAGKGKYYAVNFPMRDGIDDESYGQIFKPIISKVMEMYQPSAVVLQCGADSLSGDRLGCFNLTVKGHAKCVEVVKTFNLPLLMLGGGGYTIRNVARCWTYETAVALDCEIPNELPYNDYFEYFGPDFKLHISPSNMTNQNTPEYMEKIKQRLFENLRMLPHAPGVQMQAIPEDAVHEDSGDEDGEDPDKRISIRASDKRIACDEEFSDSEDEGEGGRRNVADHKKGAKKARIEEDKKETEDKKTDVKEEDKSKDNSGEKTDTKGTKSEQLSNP
T1 sequence (Q9BY41 whole entry, looked up): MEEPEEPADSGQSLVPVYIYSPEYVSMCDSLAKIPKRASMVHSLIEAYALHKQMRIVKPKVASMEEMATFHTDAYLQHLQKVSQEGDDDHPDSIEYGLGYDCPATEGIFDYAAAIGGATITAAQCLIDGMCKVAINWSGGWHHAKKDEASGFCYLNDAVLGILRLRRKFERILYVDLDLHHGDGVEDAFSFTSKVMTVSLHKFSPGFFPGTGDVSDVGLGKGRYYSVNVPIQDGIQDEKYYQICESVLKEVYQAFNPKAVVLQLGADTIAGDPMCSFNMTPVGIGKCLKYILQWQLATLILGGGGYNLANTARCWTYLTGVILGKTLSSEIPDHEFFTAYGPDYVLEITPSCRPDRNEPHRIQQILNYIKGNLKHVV

Cc1[nH]c2ccccc2c1CCNCc1ccc(/C=C/C(=O)NO)cc1 [PANOBINOSTAT]
Activity [1]: Toxic | pEC50 [2]: > 7.52

CC/C=N/NC(=O)c1ccc(CNC(=O)c2ccccc2)cc1
inhibition ([3]; MV4-11, dose 100.0 nM): inactive | inhibition ([4]; MV4-11, dose 100.0 nM): inactive | pIC50 [5]: < 5.00

CCCCNNC(=O)c1cccc2ccccc12
pIC50 [5]: < 5.00

CCCNNC(=O)c1ccc(CNC(=O)c2ccccc2)cc1
Drug metabolism [6]: Metabolite_Notdetected | Activity [7]: Non-Toxic | inhibition [3, 17]: Active | Activity [8]: Non-Toxic | inhibition [4, 17]: Active | inhibition [9]: inactive | Drug metabolism [10]: Metabolite_Notdetected

C/C=C/CNNC(=O)c1ccc(CNC(=O)c2ccccc2)cc1
pIC50 [5]: 5.81

O=C(CCCCCCC(=O)Nc1ccccc1)NO [VORINOSTAT]
Drug metabolism [6]: Metabolite_Detected | Drug metabolism [10]: Metabolite_Notdetected

CC(C)NNC(=O)c1ccc(CNC(=O)c2ccccc2)cc1
pIC50 [5]: < 5.00

Nc1ccccc1NC(=O)c1ccc(CNC(=O)OCc2cccnc2)cc1 [ENTINOSTAT]
pEC50 [2]: > 7.52

CCCCNNC(=O)c1ccc(CNC(=O)c2ccccc2)cc1
Drug metabolism [6]: Metabolite_Notdetected | inhibition [3, 17]: Active | Activity [8]: Non-Toxic | inhibition [4, 17]: Active | inhibition [9]: inactive | Drug metabolism [10]: Metabolite_Notdetected

CCCNNC(=O)c1ccc(CNC(=O)/C=C/c2ccccc2)cc1
Drug metabolism [11]: Metabolite_Detected | Drug metabolism [6]: Metabolite_Notdetected | Activity [7]: Non-Toxic | pEC50 [12]: 6.82 | pEC50 [13]: < 5.00 | pEC50 [14]: 7.12 | inhibition [3, 17]: Active | Activity [8]: Non-Toxic | pEC50 [15]: < 5.00 | pEC50 [16]: 5.67 | pEC50 [2]: 7.44 | inhibition [4, 17]: Active | inhibition [9]: inactive | Drug metabolism [10]: Metabolite_Notdetected
